Data published in patent US10300053B2, “Quinoline carboxamides for use in the treatment of leukemia” (Active Biotech AB, priority 2014, dated 2019).

Key:
AML = conditions: 0.2 mg/kg body weight twice weekly for 2 years following ABMT for AML in remission; cited from earlier work
[1] = system: B-cell leukemia (BCL1) cells; conditions: BALB/c mice inoculated with BCL1 cells; cited from earlier work
[2] = system: AL-7015-P2 leukemic cells; assay: Patient Derived Xenograft (PDX) model AL-7015 of acute lymphocytic leukemia; format: in vivo, NOD/SCID mice
Method: Tasquinimod was tested in a Patient Derived Xenograft (PDX) model AL-7015 provided by Crown Bioscience In. (www.crownbio.com). Cells derived from a patient with B-cell ALL were used. On Day 0, NOD/SCID mice were inoculated i.v. with 70×10^6 AL-7015-P2 leukemic cells per mouse. From day 1 to termination mice were treated with tasquinimod ad lib. in the drinking water at 30 mg/kg. Mice were terminated, as soon as any sign of morbidity was observed. The median survival time for the vehicle group was 51 days, while it was 99 days for the treatment group (p<0.0001) (FIG. 2). In the treatment group, the tumor burden remained close to zero for at least 10 weeks, long after the vehicle group had reached 100% tumor burden (FIG. 3).

| SMILES | benefit over placebo regarding relapse (AML) | benefit over placebo regarding survival (AML) | impact on graft survival [1] | impact on graft versus leukemia (GVL) effects [1] | median survival time ([2]; 30 mg/kg ad lib. in drinking water from day 1 to termination, vehicle group 51 days, p<0.0001) | tumor burden ([2]; 30 mg/kg in drinking water, for at least 10 weeks, long after the vehicle group had reached 100% tumor burden) |
| --- | --- | --- | --- | --- | --- | --- |
| CN(C(=O)c1c(O)c2ccccc2n(C)c1=O)c1ccccc1 [Roquinimex, 4-hydroxy-N, 1-dimethyl-2-oxo-N-phenyl-1,2-dihydroquinoline-3-carboxamide] | no benefit | no benefit | no impact | no impact |  |  |
| COc1cccc2c1c(O)c(C(=O)N(C)c1ccc(C(F)(F)F)cc1)c(=O)n2C [tasquinimod, 4-hydroxy-5-methoxy-N,1-dimethyl-2-oxo-N-[4-(trifluoromethyl)phenyl]-1,2-dihydroquinoline-3-carboxamide] |  |  |  |  | 99 days | close to zero |
